The values below come from ChEMBL document CHEMBL1201862, “PubChem BioAssay data set” (2004).

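48-hour exposure; five concentrations; linearly interpolated endpoints. GI50: concentration for 50% inhibition of growth.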 Activity calls are given as the source filed them. No stated cut-off is given here; in the data, active = GI50 up to about 1.1 µM and inactive = higher.

Test systems include OVCAR-8; U-251; OVCAR-5; SNB-75; HCT-15; MDA-MB-435; A549; NCI-H522; COLO 205; NCI/ADR-RES; A498; KM12; HL-60; K562; Hs-578T; SF-539; HCC 2998; HOP-92; SR; T47D.
Holding throughout (assay): DTP human tumour cell line panel, 48 h

On to `CC[N+](CC)(CCNCC(N)=O)CC(N)=O`, for which the GI50 (usually the concentration giving 50% growth inhibition) is > 10 µM (inactive) with OVCAR-8; > 10 µM (inactive) with U-251; > 10 µM (inactive) in the test on OVCAR-5; > 10 µM (inactive) in the test with SNB-75; more than 10 µM in the test with HCT-15; > 10 µM (inactive) with MDA-MB-435. Further, the GI50 in the test on A549, in the test on NCI-H522, with COLO 205, with NCI/ADR-RES, in the test on A498 and in the test on KM12 was > 10 µM (inactive) throughout. The GI50 in the test with HL-60, with K562, in the test on Hs-578T, in the test on SF-539, with HCC 2998 and in the test with HOP-92 was > 10 µM (inactive) throughout.
For the compound `Oc1ccc(Cl)cc1C1=NC(NCN2CCN(CNC3=NC(c4ccccc4)CC(c4cc(Cl)ccc4O)=N3)CC2)=NC(c2ccccc2)C1` (stereo not drawn), the GI50 with OVCAR-8 is 31.8 µM (inactive); with U-251, 35.4 µM (inactive); in the test with OVCAR-5, 50.9 µM (inactive); in the test with SNB-75, 35.6 µM (inactive); with SR it was 28 µM (inactive); in the test with HCT-15, 24.4 µM. Moreover, the GI50 was 48.6 µM (inactive) in the test with MDA-MB-435; 36.1 µM (inactive) with A549; 47.4 µM (inactive) in the test with COLO 205; 38.4 µM (inactive) with NCI/ADR-RES; 47.8 µM (inactive) in the test on A498; 37.1 µM (inactive) in the test with KM12. The GI50 with HL-60 was 28.4 µM (inactive); in the test on K562 it was 36.2 µM (inactive); in the test on Hs-578T it was 55.7 µM (inactive); in the test with SF-539, 72.1 µM (inactive); in the test with HCC 2998, 52.6 µM (inactive); in the test with HOP-92 it was 58.2 µM (inactive).
In the case of `NC1=NS(=O)(=O)Nc2nc(-c3ccc(Cl)cc3)[nH]c21`, the GI50 is > 100 µM (inactive) in the test on OVCAR-8; > 100 µM (inactive) in the test on U-251; > 100 µM (inactive) with OVCAR-5; 62.7 µM (inactive) in the test with SNB-75; > 100 µM (inactive) in the test with SR; more than 100 µM in the test with HCT-15. In addition, the GI50 in the test on A549, with NCI-H522, with COLO 205, with A498, in the test on KM12 and with HL-60 was > 100 µM (inactive) each time. The GI50 was > 100 µM (inactive) with K562, > 100 µM (inactive) with SF-539, > 100 µM (inactive) in the test with HCC 2998 and 88.1 µM (inactive) in the test on HOP-92.
Take `Cc1cn(C2OC(C)(CO)C(O)C2O)c(=O)[nH]c1=O` (stereo not drawn): the GI50 with OVCAR-8 was > 100 µM (inactive); in the test on U-251 it was > 100 µM (inactive); in the test on OVCAR-5, > 100 µM (inactive); in the test with SNB-75, > 100 µM (inactive); in the test on SR, > 100 µM (inactive); in the test with HCT-15, more than 100 µM. The GI50 in the test with A549 is > 100 µM (inactive); in the test with NCI-H522, > 100 µM (inactive); with COLO 205, > 100 µM (inactive); with A498, > 100 µM (inactive); with KM12, > 100 µM (inactive); in the test on HL-60, > 10 µM (inactive). Moreover, the GI50 with K562, in the test on SF-539, in the test on HCC 2998 and in the test with HOP-92 was > 100 µM (inactive) in each case.
For `C=C(NC(=O)C(=C)NC(=O)c1csc(C2=NC3c4csc(n4)C4NC(=O)c5csc(n5)C(C(C)(O)C(C)O)NC(=O)C5CSC(=N5)/C(=C/C)NC(=O)C(C(C)O)NC(=O)c5csc(n5)C3(CC2)NC(=O)C(C)NC(=O)C(=C)NC(=O)C(C)NC(=O)C(C(C)CC)NC2C=Cc3c(C(C)O)cc(nc3C2O)C(=O)OC4C)n1)C(N)=O` (stereo not drawn), the GI50 with U-251 was 1.57 µM (inactive); with OVCAR-5 it was 11.8 µM (inactive); with SNB-75, 1.82 µM (inactive); in the test on SR it was 0.302 µM (active); with HCT-15 it was 4.12 µM; in the test on A549 it was 4.57 µM (inactive). The GI50 in the test with NCI-H522 is 0.287 µM (active); in the test with NCI/ADR-RES, > 58.3 µM (inactive); in the test with A498, 1.74 µM (inactive); with KM12, 1.93 µM (inactive); in the test on HL-60, 2.69 µM (inactive); in the test on K562, 0.726 µM (active). The GI50 in the test with SF-539 is 1.73 µM (inactive); with HCC 2998, 6.67 µM (inactive); in the test on HOP-92, 1.7 µM (inactive).
Turning to `O=C1CSC(c2ccc([N+](=O)[O-])cc2)N1c1nc(-c2ccc3c(c2)CCCC3)cs1` (stereo not drawn), the GI50 in the test on OVCAR-8 was > 100 µM (inactive); in the test on U-251, > 100 µM (inactive); in the test on OVCAR-5, > 100 µM (inactive); in the test with SNB-75, 86.9 µM (inactive); in the test on SR, > 100 µM (inactive); with HCT-15, more than 100 µM. In addition, the GI50 was 33.4 µM (inactive) in the test on MDA-MB-435; > 100 µM (inactive) in the test on NCI-H522; > 100 µM (inactive) with COLO 205; > 100 µM (inactive) in the test with NCI/ADR-RES; > 100 µM (inactive) with A498; > 100 µM (inactive) in the test on KM12. Besides, the GI50 is > 100 µM (inactive) in the test on HL-60; > 100 µM (inactive) with K562; > 100 µM (inactive) in the test with Hs-578T; 27.2 µM (inactive) with SF-539; > 100 µM (inactive) in the test on HCC 2998.
Consider `N#CCc1nc2cc(C(F)(F)F)ccc2s1`, for which the GI50 is 30.1 µM (inactive) in the test on OVCAR-8; 38.7 µM (inactive) in the test with U-251; > 100 µM (inactive) in the test on OVCAR-5; 35.3 µM (inactive) in the test with SNB-75; 52.1 µM in the test with HCT-15; 40.4 µM (inactive) in the test with MDA-MB-435. The GI50 in the test with NCI-H522 was 11.1 µM (inactive); with COLO 205, 34 µM (inactive); in the test on T47D it was 23.1 µM (inactive); in the test on NCI/ADR-RES it was 55.7 µM (inactive); in the test on A498 it was 70 µM (inactive); with KM12 it was 64.6 µM (inactive). The GI50 in the test on SF-539 was 51.8 µM (inactive); with HOP-92 it was 20.4 µM (inactive).
With `CCOC(=O)C1=CCOc2cc(N(C)C)ccc21`, the GI50 was > 100 µM (inactive) with OVCAR-8; > 100 µM (inactive) in the test on U-251; 43.4 µM (inactive) in the test with SNB-75; 65.9 µM (inactive) with SR; more than 100 µM in the test with HCT-15; > 100 µM (inactive) with MDA-MB-435. Besides, the GI50 was > 100 µM (inactive) in the test with A549; 45.3 µM (inactive) with NCI-H522; > 100 µM (inactive) with COLO 205; > 100 µM (inactive) in the test on NCI/ADR-RES; > 100 µM (inactive) in the test with A498; > 100 µM (inactive) in the test on KM12. The GI50 with HL-60 is 31.8 µM (inactive); in the test on K562, 26.9 µM (inactive); in the test on Hs-578T it was > 100 µM (inactive); with SF-539 it was > 100 µM (inactive); in the test on HCC 2998, > 100 µM (inactive).
On to `N#CCCC(CC#N)N1CCN(C(CC#N)CCC#N)CC1` (stereo not drawn), for which the GI50 in the test on OVCAR-8 was > 100 µM (inactive); in the test on U-251 it was > 100 µM (inactive); in the test with OVCAR-5 it was > 100 µM (inactive); in the test with SNB-75 it was > 100 µM (inactive); in the test with SR, > 100 µM (inactive); in the test with HCT-15, more than 100 µM. The GI50 in the test on A549, with NCI-H522, in the test on COLO 205, in the test with NCI/ADR-RES, with HL-60 and with K562 was > 100 µM (inactive) throughout. Besides, the GI50 with SF-539 and in the test with HCC 2998 was > 100 µM (inactive) throughout.
Consider `CCOC(OCC)[C@H](N)[C@@H](O)[C@@H](O)[C@H]1COC(C)(C)O1`, for which the GI50 is > 100 µM (inactive) in the test on OVCAR-8; > 100 µM (inactive) in the test on U-251; > 100 µM (inactive) with OVCAR-5; > 100 µM (inactive) in the test on SNB-75; > 100 µM (inactive) in the test with SR; more than 100 µM in the test with HCT-15. The GI50 in the test on MDA-MB-435, with A549, in the test with COLO 205, with NCI/ADR-RES, in the test with A498 and in the test on KM12 was > 100 µM (inactive) in each case. The GI50 with K562 and with Hs-578T was > 100 µM (inactive) throughout.
Consider `CC1=CC(=O)/C(=C/NC(=O)NN)C(=O)O1`, for which the GI50 in the test with OVCAR-8 was > 100 µM (inactive); with U-251, > 100 µM (inactive); in the test with OVCAR-5, > 100 µM (inactive); in the test with SNB-75, 45.4 µM (inactive); in the test on HCT-15, more than 100 µM; in the test with MDA-MB-435, > 100 µM (inactive). In addition, the GI50 in the test with A549 was > 100 µM (inactive); in the test on NCI-H522, > 100 µM (inactive); with COLO 205, > 100 µM (inactive); in the test on NCI/ADR-RES, 94.2 µM (inactive); with KM12, > 100 µM (inactive); with Hs-578T, > 100 µM (inactive). The GI50 with SF-539 is 77.8 µM (inactive); in the test on HCC 2998, > 100 µM (inactive); with HOP-92, > 100 µM (inactive).
Regarding `COc1cc(/C=C\c2ccc(C)cc2)cc(OC)c1OC`, the GI50 in the test on OVCAR-8 was 0.00822 µM (active); with U-251, 0.00441 µM (active); with OVCAR-5, 0.116 µM (active); in the test on SNB-75, 0.00281 µM (active); with SR, 0.00841 µM (active); in the test on HCT-15 it was 0.00746 µM. Also, the GI50 in the test with MDA-MB-435 was 0.00264 µM (active); in the test on A549, 0.0048 µM (active); with NCI-H522, 0.00323 µM (active); in the test on COLO 205, 0.0101 µM (active); in the test on NCI/ADR-RES, 0.00767 µM (active); in the test with A498, < 0.01 µM (active). In addition, the GI50 in the test with KM12 was 0.00531 µM (active); in the test with HL-60, 0.00057 µM (active); in the test with K562, 0.00131 µM (active); in the test with Hs-578T, 0.0244 µM (active); in the test with SF-539, 0.00296 µM (active); in the test with HCC 2998, 0.0191 µM (active). For the same compound, the GI50 with HOP-92 was 0.0652 µM (active).
